Source: ChEMBL document CHEMBL4376806, “Antibiotic Adjuvants: Make Antibiotics Great Again!” (2019)

Key:
Type in all cases: functional
Pseudomonas aeruginosa [1] = assay: Synergistic antibacterial activity against Pseudomonas aeruginosa assessed as fractional inhibitory concentration index in presence of doxycycline after 18 hrs by checkerboard assay
Pseudomonas aeruginosa [2] = assay: Potentiation of doxycycline-induced antibacterial activity against Pseudomonas aeruginosa PAO1 assessed as doxycycline MIC at 1.22 ug/ml by broth micro-dilution method (reference value: 32 ug/ml)
Klebsiella pneumoniae = assay: Potentiation of doxycycline-induced antibacterial activity against Klebsiella pneumoniae KPC2 assessed as doxycycline MIC at 2.5 uM after 18 hrs (reference value: 10 ug/ml); settings: KPC2, 18 h
Pseudomonas aeruginosa [3] = assay: Potentiation of doxycycline-induced antibacterial activity against Pseudomonas aeruginosa PAO1 assessed as doxycycline MIC at 1.25 uM after 18 hrs (reference value: 20 ug/ml); settings: PAO1, 18 h
Klebsiella aerogenes [4] = assay: Potentiation of doxycycline-induced antibacterial activity against Enterobacter aerogenes EA289 assessed as doxycycline MIC at 5 uM after 18 hrs (reference value: 40 ug/ml); settings: EA289, 18 h
Pseudomonas aeruginosa [5] = assay: Potentiation of doxycycline-induced antibacterial activity against Pseudomonas aeruginosa PAO1 assessed as doxycycline MIC at 2.5 uM after 18 hrs (reference value: 20 ug/ml); settings: PAO1, 18 h
Klebsiella aerogenes [6] = assay: Potentiation of doxycycline-induced antibacterial activity against Enterobacter aerogenes EA289 assessed as doxycycline MIC at 2.5 uM after 18 hrs (reference value: 40 ug/ml); settings: EA289, 18 h
Escherichia coli [7] = assay: Potentiation of erythromycin-induced antibacterial activity against Escherichia coli W3110 assessed as erythromycin MIC at 8 ug/ml after 20 hrs by liquid microdilution method (reference value: 64 ug/ml); settings: K-12 substr. W3110, 20 h
Escherichia coli [8] = assay: Potentiation of novobiocin-induced antibacterial activity against Escherichia coli W3110 assessed as novobiocin MIC at 8 ug/ml after 20 hrs by liquid microdilution method (reference value: 128 ug/ml); settings: K-12 substr. W3110, 20 h
Pseudomonas aeruginosa [9] = assay: Potentiation of doxycycline-induced antibacterial activity against Pseudomonas aeruginosa PAO1 assessed as doxycycline MIC at 2 ug/ml after 24 hrs by broth microdilution method (reference value: 16 ug/ml); settings: PAO1, 24 h
Klebsiella aerogenes [10] = assay: Potentiation of doxycycline-induced antibacterial activity against Enterobacter aerogenes EA289 assessed as doxycycline MIC at 2 ug/ml after 24 hrs by broth microdilution method (reference value: 40 ug/ml); settings: EA289, 24 h
Klebsiella aerogenes [11] = assay: Potentiation of cefepime-induced antibacterial activity against Enterobacter aerogenes ATCC 13048 assessed as cefepime MIC at 1.6 ug/ml after 18 hrs (reference value: 0.25 ug/ml); settings: ATCC 13048, 18 h
Pseudomonas aeruginosa [12] = assay: Potentiation of chloramphenicol-induced antibacterial activity against Pseudomonas aeruginosa PAO1 assessed as chloramphenicol MIC at 3.2 ug/ml after 18 hrs (reference value: 512 ug/ml); settings: PAO1, 18 h
Escherichia coli [13] = assay: Potentiation of chloramphenicol-induced antibacterial activity against Escherichia coli AG100 assessed as chloramphenicol MIC at 0.4 ug/ml after 18 hrs (reference value: 8 ug/ml); settings: AG100, 18 h
Escherichia coli [14] = assay: Potentiation of tetracycline-induced antibacterial activity against Escherichia coli AG100 assessed as tetracycline MIC at 0.4 ug/ml after 18 hrs (reference value: 2 ug/ml); settings: AG100, 18 h
Klebsiella aerogenes [15] = assay: Potentiation of ciprofloxacin-induced antibacterial activity against Enterobacter aerogenes ATCC 13048 assessed as ciprofloxacin MIC at 1.6 ug/ml after 18 hrs (reference value: 0.5 ug/ml); settings: ATCC 13048, 18 h
Pseudomonas aeruginosa [16] = assay: Potentiation of tetracycline-induced antibacterial activity against Pseudomonas aeruginosa PAO1 assessed as tetracycline MIC at 3.2 ug/ml after 18 hrs (reference value: 16 ug/ml); settings: PAO1, 18 h
Escherichia coli [17] = assay: Potentiation of erythromycin-induced antibacterial activity against Escherichia coli AG100 assessed as erythromycin MIC at 0.4 ug/ml after 18 hrs (reference value: 512 ug/ml); settings: AG100, 18 h
Escherichia coli [18] = assay: Potentiation of ciprofloxacin-induced antibacterial activity against Escherichia coli AG100 assessed as ciprofloxacin MIC at 0.4 ug/ml after 18 hrs (reference value: 0.25 ug/ml); settings: AG100, 18 h
Klebsiella aerogenes [19] = assay: Potentiation of chloramphenicol-induced antibacterial activity against Enterobacter aerogenes ATCC 13048 assessed as chloramphenicol MIC at 1.6 ug/ml after 18 hrs (reference value: 4 ug/ml); settings: ATCC 13048, 18 h
Escherichia coli [20] = assay: Potentiation of cefepime-induced antibacterial activity against Escherichia coli AG100 assessed as cefepime MIC at 0.4 ug/ml after 18 hrs (reference value: 0.5 ug/ml); settings: AG100, 18 h
Pseudomonas aeruginosa [21] = assay: Potentiation of erythromycin-induced antibacterial activity against Pseudomonas aeruginosa PAO1 assessed as erythromycin MIC at 3.2 ug/ml after 18 hrs (reference value: 512 ug/ml); settings: PAO1, 18 h
Klebsiella aerogenes [22] = assay: Potentiation of erythromycin-induced antibacterial activity against Enterobacter aerogenes ATCC 13048 assessed as erythromycin MIC at 1.6 ug/ml after 18 hrs (reference value: 512 ug/ml); settings: ATCC 13048, 18 h
Pseudomonas aeruginosa [23] = assay: Potentiation of ciprofloxacin-induced antibacterial activity against Pseudomonas aeruginosa PAO1 assessed as ciprofloxacin MIC at 3.2 ug/ml after 18 hrs (reference value: 16 ug/ml); settings: PAO1, 18 h
Klebsiella aerogenes [24] = assay: Potentiation of tetracycline-induced antibacterial activity against Enterobacter aerogenes ATCC 13048 assessed as tetracycline MIC at 1.6 ug/ml after 18 hrs (reference value: 2 ug/ml); settings: ATCC 13048, 18 h
Pseudomonas aeruginosa [25] = assay: Potentiation of cefepime-induced antibacterial activity against Pseudomonas aeruginosa PAO1 assessed as cefepime MIC at 3.2 ug/ml after 18 hrs (reference value: 8 ug/ml); settings: PAO1, 18 h

Structure (SMILES): CC(C)=C/C=C\C(C)=C/CC/C(C)=C/CNCCCNCCCCNCCCN.Cl.Cl.Cl.Cl
- fractional inhibitory concentration index (FICI) (Pseudomonas aeruginosa [1]): 0.09
- MIC (Pseudomonas aeruginosa [2]): 2 µg/mL

Structure (SMILES): Cl.Cl.Cl.NCCCCNCCCCNC1CCCCCCCCCCCCCC1
- MIC (Klebsiella pneumoniae): 2 µg/mL
- MIC (Pseudomonas aeruginosa [3]): 2 µg/mL
- MIC (Klebsiella aerogenes [4]): 2 µg/mL

Structure (SMILES): Cl.Cl.Cl.NCCCNCCCNC1CCCCCCCCCCCCCC1
- MIC (Klebsiella pneumoniae): 2 µg/mL
- MIC (Pseudomonas aeruginosa [5]): 2 µg/mL
- MIC (Klebsiella aerogenes [6]): 2 µg/mL

Structure (SMILES): COc1ccccc1CNCCCCCCNCCCCCCCCNCCCCCCNCc1ccccc1OC [METHOCTRAMINE]
- MIC (Escherichia coli [7]): 16 µg/mL
- MIC (Escherichia coli [8]): 16 µg/mL

Structure (SMILES): CC(C)OC(=O)CC[C@@H](C)[C@H]1CC[C@H]2[C@@H]3CC[C@H]4C[C@@H](NCCCNCCCNCCCCNCCCN)CC[C@]4(C)[C@H]3C[C@H](O)[C@]12C
- MIC (Pseudomonas aeruginosa [9]): 2 µg/mL
- MIC (Klebsiella aerogenes [10]): 0.5 µg/mL

Structure (SMILES): CC(C)[C@@H](CC[C@@H](C)[C@H]1CC[C@H]2[C@@H]3[C@H](O)C[C@H]4C[C@@H](NCCCNCCCCN)CC[C@]4(C)[C@H]3CC[C@]12C)OS(=O)(=O)O [SQUALAMINE]
- MIC (Klebsiella aerogenes [11]): 0.03 µg/mL
- MIC (Pseudomonas aeruginosa [12]): 16 µg/mL
- MIC (Escherichia coli [13]): 0.5 µg/mL
- MIC (Escherichia coli [14]): 0.125 µg/mL
- MIC (Klebsiella aerogenes [15]): 0.015 µg/mL
- MIC (Pseudomonas aeruginosa [16]): 4 µg/mL
- MIC (Escherichia coli [17]): 256 µg/mL
- MIC (Escherichia coli [18]): 0.03 µg/mL
- MIC (Klebsiella aerogenes [19]): 0.25 µg/mL
- MIC (Escherichia coli [20]): 0.06 µg/mL
- MIC (Pseudomonas aeruginosa [21]): 256 µg/mL
- MIC (Klebsiella aerogenes [22]): 128 µg/mL
- MIC (Pseudomonas aeruginosa [23]): < 1 µg/mL
- MIC (Klebsiella aerogenes [24]): 0.25 µg/mL
- MIC (Pseudomonas aeruginosa [25]): 1 µg/mL
